For the assay, the target named is T1, DvhD (DVU1020), cytoplasmic fragment (PAS and HD-GYP domains) (Nitratidesulfovibrio vulgaris, UniProt Q72DA9).
T1 sequence (Q72DA9 374-701): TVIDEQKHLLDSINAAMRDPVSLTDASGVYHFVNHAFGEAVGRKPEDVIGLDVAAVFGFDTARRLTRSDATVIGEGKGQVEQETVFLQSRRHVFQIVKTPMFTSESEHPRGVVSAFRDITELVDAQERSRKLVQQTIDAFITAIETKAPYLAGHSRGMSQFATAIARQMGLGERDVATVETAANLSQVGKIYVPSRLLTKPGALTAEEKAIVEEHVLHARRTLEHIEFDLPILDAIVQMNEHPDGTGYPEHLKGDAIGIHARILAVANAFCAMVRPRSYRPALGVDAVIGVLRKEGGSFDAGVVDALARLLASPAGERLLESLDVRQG
As to the kind of experiment: isothermal titration calorimetry. Format: binding.

By Kd is commonly meant a measure of binding affinity in units of concentration. A higher Kd goes with a looser complex.

`Nc1nc2c(ncn2[C@@H]2O[C@@H]3CO[P@](=O)(O)O[C@H]4[C@@H](O)[C@H](n5cnc6c(=O)[nH]c(N)nc65)O[C@@H]4CO[P@](=O)(O)O[C@H]3[C@H]2O)c(=O)[nH]1` [c-di-GMP] registered a dissociation constant Kd of 322 ± 81 nM.

Source of the values: article PMC10990149 (Proceedings of the National Academy of Sciences of the …, 2024).
